According to patent US20030055101A1, “Use of statins to inhibit formation of osteoclasts” (priority 2001, published 2003):
Counter-ions that a name gives are not always drawn.

How the values were obtained:
[1] = system: primary murine bone marrow cell cultures; assay: RANKL-induced osteoclastogenesis in bone marrow cell cultures (TRAP staining); format: cell-based, mouse; settings: for number of TRAP-positive cells formed: added 2 days post RANKL stimulation (5 days after isolation)
Method: Bone marrow cells were cultured with 100 ng/mL of M-CSF for 3 days. The cells were further cultured for 5 more days with either atorvastatin, its S,S-enantiomer or osteoprotegerin (OPG) in the presence of RANKL and M-CSF. Cells were then fixed and stained for TRAP. […] The data shown are mean ±SD (n=4 wells/treatment).
Bone marrow cells treated with M-CSF for 3 days were stimulated with RANKL as well as atorvastatin (0.01 nM, […], and 1 μM), its S,S-enantiomer or OPG. In some experiments atorvastatin was added 2 days post RANKL stimulation (5 days after isolation). On Day 8 postisolation, cells were fixed and stained for TRAP. TRAP-positive multinucleated cells were counted and represented. The data shown are mean of ±SD (n=4 wells/treatment).
Bone marrow cells were cultured in the presence of 100 ng/mL of recombinant murine M-CSF for 3 days after isolation. The cells were then stimulated with murine RANKL (100 ng/mL) in the presence of various doses of atorvastatin (0.01 nM, 1 nM, and 1 μM), S,S-enantiomer of atorvastatin, or osteoprotegerin (OPG) and further cultured for 5 more days and stained for TRAP activity (see FIG. 1).
Osteoclastogenesis involves a series of events which include differentiation, proliferation, activation, and fusion to form multinucleated cells that are capable of resorbing bone. To examine the stage at which atorvastatin inhibits osteoclastogenesis, atorvastatin was added at various times to mouse bone marrow cells in the presence of M-CSF and RANKL.
Briefly, after removing the femur aseptically, the adherent soft tissue was separated from the bone. Using a syringe and a needle, the marrow was flushed using alpha minimum essential medium (α-MEM). Osteoclasts were obtained by culturing bone marrow cells (0.15×10^6 cells/well) in α-MEM containing 10% fetal bovine serum (FBS), 100 IU penicillin, 100 μg/mL of streptomycin and 100 ng/mL of recombinant murine M-CSF for 3 days in 48-well plates. The osteoclasts thus obtained were further cultured with RANKL±atorvastatin, S,S-enantiomer of atorvastatin or osteoprotegerin (OPG), for 5 days. […] In some experiments, the compounds were added on Day 5 postisolation.
(§1) After washing twice with distilled water that was prewarmed to 37° C., the cells were incubated in acetate buffer containing naphthol AS-B1 and Fast Garnet GBC solution for 45 minutes at 37° C. TRAP-positive cells are typically brown in color when viewed under the microscope. The total number of TRAP-positive cells with 3 or more nuclei in each well were counted. TRAP activity is a phenotypic marker of mature osteoclasts.

[2] = system: RAW 264.7 cells; assay: RANKL-induced osteoclastogenesis in RAW 264.7 cells (TRAP staining); format: cell-based
Method: Raw cells (2000/well) were stimulated with RANKL (50 ng/mL)±atorvastatin and S,S-enantiomer of atorvastatin for 5 days and TRAP staining was performed at the end of Day 5 and the data is expressed as % inhibition of number of TRAP-positive cells compared to control.
RAW cells were plated at a density of 2000 cells/well in a 48-well plate and cultured overnight in alpha-MEM medium containing antibiotics. Cells were treated with either RANKL (50 ng/mL)±atorvastatin or the S,S-enantiomer of atorvastatin (10, 1, and 0.01 μM) for 5 days and stained for TRAP enzyme. Purple stained cells with three or more nuclei were counted under the microscope and represented as % inhibition of osteoclastogenesis compared to control cells.
RAW cells were cultured in α-MEM containing 10% FBS, 100 IU penicillin, 100 μg/mL of streptomycin. Cells were plated at a density of 2000 cells/well in a 48-well plate. After overnight incubation, the cells were stimulated with RANKL (50 ng/mL)±atorvastatin, S,S-enantiomer of atorvastatin or OPG for 5 days and stained for TRAP at the end of Day 5.
as §1, with “After initial wash with 1×PBS, the cells were fixed for 30 seconds using acetone based fixing solution containing acetone, citric acid and 37% formaldehyde. After” for “After”

[3] = system: osteoclasts in ovariectomized rats; assay: Osteoclast numbers in ovariectomized rats (tibia histomorphometry); format: in vivo, rat; settings: for osteoclast numbers: 5 weeks
Method: Rats were ovariectomized according to the standard protocol and were administered orally with various doses of atorvastatin (2.5, 5, and 10 mg/kg body weight) for 5 weeks. Tibiae were analyzed for osteoclast number by histomorphometry. Ethinyl estradiol (EE) (0.4 mg/kg), a known bone protective agent, was used as a positive control.
Ovariectomy-induced bone loss in rats is an established model of osteoporosis, wherein estrogen insufficiency leads to increased osteoclastogenesis, possibly due to enhanced cytokine production. To test whether statins decrease bone resorption in vivo, ovariectomized rats were given orally various doses of atorvastatin (2.5, 5, or 10 mg/kg body weight) for 5 weeks. At the end of the study, the animals were sacrificed, and histomorphometric analysis was performed on tibia obtained from the animals.
The rats were ovariectomized according to the standard protocol. Briefly, after anesthesia the rats were cleaned with antiseptic solution. A small incision was made on the back of the animal, and the ovaries were located carefully underneath the fat tissue. After proper clamping, ovaries were removed with a scalpel blade. Also, the fallopian tube with the uterine horn was sealed by electrocautery. Later, the skin incision was closed using wound clips. After recovery from the surgery, animals were randomized into 6 groups of 8 animals each (sham operated, OVX, OVX+ atorvastatin 2.5, 5, 10 mg/kg body weight and OVX+ ethinyl estradiol) and dosed with various concentrations of atorvastatin and vehicle control every day for a period of 5 weeks.
Histomorphometric analysis was performed using decalcified sections of the proximal tibia for cancellous bone and undecalcified sections for cortical bone. Briefly, tibiae were decalcified using 10% ethylene diaminetetraacetic acid (EDTA), followed by […] in ascending concentrations of ethanol and embedded in glycol methacrylate (GMA) resin. The specimens were sectioned at 5 to 10 μm and stained with TRAP and counter stained with methyl green for determination of cellular parameters. Bone histomorphometry was performed using an OsteoMeasure image analysis system connected via a video system to a suitable light microscope.

[4] = system: osteoblast-osteoclast cocultures; settings: 10 μM; cited from earlier work
[5] = normal and ovariectomized (OVX) rats; cited from earlier work

Molecule: CC(C)c1c(C(=O)Nc2ccccc2)c(-c2ccccc2)c(-c2ccc(F)cc2)n1CC[C@@H](O)C[C@@H](O)CC(=O)O [atorvastatin, [R-(R*,R*)]-2-(4-fluorophenyl)-β,δ-dihydroxy-5-(1-methylethyl)-3-phenyl-4-[(phenylamino)carbonyl]-1H-pyrrole-1-heptanoic acid calcium salt (2:1) trihydrate]
- number of TRAP-positive, multinucleated cells ([1]; 0.01 nM to 1 μM): significantly reduced
- IC50 ([1]; Mus musculus, primary murine bone marrow cell cultures, read-out: IC50, number of TRAP-positive, multinucleated cells): 0.43 nM
- number of TRAP-positive cells formed [1]: able to block
- effect when added on Day 5 compared with Day 3 postisolation ([1]; time course): much more pronounced
- number of TRAP-positive, multinucleated cells ([2]; 0.01 nM to 1 μM): significantly reduced
- inhibition at 0.01 µM ([2]; Mus musculus, RAW264.7, 120 h, 0.01 micromolar, 5 days, RANKL 50 ng/mL, read-out: % inhibition of RANKL-induced multinucleated cell formation): ~80%
- IC50 ([2]; Mus musculus, RAW264.7, RAW cells, read-out: IC50, number of TRAP-positive, multinucleated cells): 170 nM
- osteoclast numbers ([3]; 5 mg/kg orally, ovariectomized rats): significantly decreased
- osteoclast numbers ([3]; 10 mg/kg orally, ovariectomized rats): significantly decreased
- decrease of osteoclast formation compared with ethinyl estradiol ([3]; both 5 and 10 mg/kg doses, ethinyl estradiol positive control): more effective
- number of osteoclasts formed ([3]; daily oral 2.5-10 mg/kg body weight, 5-week period, ovariectomized rats): significantly decreased

Molecule: CC[C@H](C)C(=O)O[C@H]1C[C@@H](C)C=C2C=C[C@H](C)[C@H](CC[C@@H]3C[C@@H](O)CC(=O)O3)[C@H]21 [lovastatin]
- tartrate-resistant acid phosphatase (TRAP) activity [4]: inhibits
- increase in total bone area compared to BMP-2 or b-FGF [5]: greater dose-dependent increase

Molecule: (3S,5S)-7-[2-(4-fluorophenyl)-5-isopropyl-3-phenyl-4-phenylcarbamoyl-pyrrol-1-yl]-3,5-dihydroxy-heptanoic acid calcium salt (2:1) [S,S-enantiomer of atorvastatin]
- number of TRAP-positive cells formed [1]: no differences were observed
- % inhibition of RANKL-induced multinucleated cell formation, compared with atorvastatin ([2]; 10, 1, and 0.01 μM, 5 days, RANKL 50 ng/mL): significantly less % inhibition

B1: osteoprotegerin (protein, UniProt O00300 22-401, looked up)
Tumor necrosis factor …: ETFPPKYLHYDEETSHQLLCDKCPPGTYLKQHCTAKWKTVCAPCPDHYYTDSWHTSDECLYCSPVCKELQYVKQECNRTHNRVCECKEGRYLEIEFCLKHRSCPPGFGVVQAGTPERNTVCKRCPDGFFSNETSSKAPCRKHTNCSVFGLLLTQKGNATHDNICSGNSESTQKCGIDVTLCEEAFFRFAVPTKFTPNWLSVLVDNLPGTKVNAESVERIKRQHSSQEQTFQLLKLWKHQNKDQDIVKKIIQDIDLCENSVQRHIGHANLTFEQLRSLMESLPGKKVGAEDIEKTIKACKPSDQILKLLSLWRIKNGDQDTLKGLMHALKHSKTYHFPKTVTQSLKKTIRFLHSFTMYKLYQKLFLEMIGNQVQSVKISCL
notes: soluble decoy receptor for RANKL
- number of TRAP-positive multinucleated cells formed by RANKL ([1]; 50 ng/mL added simultaneously with RANKL): completely inhibited
